# Reference: patent US9315522B2, “Antibacterial compounds” (JANSSEN SCIENCES IRELAND UC, priority 2012, dated 2016)
# Tests used:
# [1] = biological target: T1, S. aureus ATCC 29213 FabI (Staphylococcus aureus, UniProt Q6GI75); test: Staphylococcus aureus FabI enzyme inhibition assay; format: biochemical; conditions: read-out: FabI (300.235) IC50 (converted)
# T1 sequence (Q6GI75 1-256): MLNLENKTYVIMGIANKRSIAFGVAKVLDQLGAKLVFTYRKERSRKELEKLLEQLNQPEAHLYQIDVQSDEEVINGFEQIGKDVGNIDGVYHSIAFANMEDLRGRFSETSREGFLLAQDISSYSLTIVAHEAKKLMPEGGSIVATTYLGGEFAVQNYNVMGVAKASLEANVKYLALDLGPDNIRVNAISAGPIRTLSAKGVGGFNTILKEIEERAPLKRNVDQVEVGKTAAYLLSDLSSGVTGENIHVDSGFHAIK
# Experimental: Y.1 FabI Enzyme Inhibition: Staphylococcus aureus FabI Enzyme Inhibition Assay
# FabI enzyme inhibition assays were carried out in half-area, 384-well microtitre plates. Compounds were evaluated in 40-μl assay mixtures containing 100 mM NaADA, pH 6.5 (ADA=N-[2-acetamido]-2iminodiacetic acid), 250 μM crotonoyl-CoA, 625 μM NADH and 50 μg/ml S. aureus ATCC 29213 FabI. Inhibitors were typically varied over the range of 50 to 0.39 μM. The reaction mixtures were incubated for 30 minutes at room temperature and the reaction was stopped by adding 200 mM Tris buffer (pH 9.0) to create a pH-shift. The consumption of NADH was monitored by measuring the change in absorbance at […]. By comparing sample readings to those of negative (absence of compound) and positive (absence of enzyme) controls, the percent inhibition of enzymatic activity of the compounds was determined A best-fit curve is fitted by a minimum of squares method. From this an IC50-value (expressed in μg/ml), resulting in 50% inhibition of enzymatic activity, was obtained.
# [2] = tested on: Staphylococcus aureus ATCC 29213; test: Antibacterial susceptibility testing, IC90 determination (STA); format: cell-based; conditions: resazurin; for IC90: Staphylococcus aureus, ATCC29213, Staphylococcus aureus ATCC 29213, broth microdilution, read-out: STA (361.159) IC90
# Experimental: (§1) The following bacteria were used: Staphylococcus aureus ATCC 29213, methicillin-resistant Staphylococcus aureus (MRSA) ATCC 700788 and Escherichia coli ATCC 35218. The bacteria used in this study were grown overnight in flasks containing 100 ml Mueller-Hinton broth (Difco cat. nr. 0757-17) in sterile de-ionized water, with shaking, at 37° C. Stocks were store at −70° C. until use.
# (§2) Bacteria were incubated on a tryptic soy agar plate containing 5% sheep blood (Becton Dickinson cat. nr. 254053) for 18-24 hours at 35° C. in aerobic conditions (first passage). For the second passage, fresh Mueller-Hinton broth is inoculated with 5-10 colonies and grown overnight at 35° C. until turbidity (reaching log-phase) in aerobic conditions is reached. The bacterial suspension is then adjusted to 0.5 McFarland density and further diluted 1:100 in Mueller Hinton broth medium. This is used as inoculum.
# The result(s) are depicted the table below (for STA ATCC 29213).
# (§3) MIC assays were performed by the broth microdilution method in a 96-well format (flat-bottom microtitre plates) with a final volume of 0.1 ml Mueller Hinton broth containing two-fold serial dilutions of compounds and inoculated with 5×10^5 CFU/ml of bacteria (standard inoculum size according to CLSI guidelines). Inhibitors are typically varied over the range of 63 to 0.49 μM. The final DMSO concentration in the assay was 1.25% (maximum tolerable DMSO concentration=6%). In the assays where the effect of human serum on the activity of the compounds against S. aureus was tested, human serum was added at a final concentration of 10%. The plates were incubated at 35° C. for 16-20 hours. At the end of incubation the bacterial growth was quantified fluorometrically. For this, resazurin was added to all wells and the plates were re-incubated. The incubation time is dependent on the type of bacteria. A change in color from blue to pink indicated the growth of bacteria. The fluorescence was read in computer-controlled fluorometer (Fluoroskan Ascent FL, Labsystems) at an excitation wavelength 540 nm and an emission wavelength of 590 nm. The % growth inhibition achieved by the compounds was calculated according to standard methods. The IC90 (expressed in μg/ml) was defined as the 90% inhibitory concentration for bacterial growth. A panel of reference compounds were simultaneously tested for QC approval.
# S. aureus = test: Antibacterial susceptibility testing, IC90 determination with 10% human serum (STA + 10% HS); format: cell-based, Staphylococcus aureus; conditions: Staphylococcus aureus, human serum at final concentration of 10%, read-out: STA + 10% HS (361.169) IC90
# Experimental: as §1, §2, §3
# The results are depicted in the table(s) below (STA+10% HS).
# [3] = Cytotoxicity MTT assay (HELAM); format: cell-based, Human; conditions: human, HelaM cells, read-out: HELAM (222.125) CC50
# Experimental: Cytotoxicity of the compounds was evaluated using the MTT assay. Human HelaM cells grown in 96-well plates were exposed to serial dilutions of the tested compounds (final volume of 0.2 ml) and incubated for 72 hours at 37° C. and 5% CO2. Inhibitors are typically varied over the range of 25 to 0.8 μM. The final DMSO concentration in the assay is 0.5%. MTT (3-(4,5-Dimethylthiazol-2-yl)-2,5-diphenyltetrazolium bromide, a tetrazole) was added and reduced to purple formazan only in living cells. Solubilization of the formazan crystals was achieved by adding 100 μl 2-propanol. Cell viability was determined by measuring the absorbance of the reduced formazan, giving a purple color, at 540 nm and 690 nm. The absorbance measured at 690 nm was automatically subtracted from the absorbance at 540 nm, to eliminate the effects of non-specific absorption. The percent cytotoxicity achieved by the compounds was calculated according to standard methods. Cytotoxicity is reported as CC50, the concentration that causes a 50% reduction in cell viability.
# The results are depicted in the table(s) below (HELAM).
IC50 [1] [µM],IC90 [2] [µg/mL],IC90 (S. aureus) [µg/mL],"STA (361.159) IC90 ([2]; Staphylococcus aureus ATCC 29213, broth microdilution) [µg/mL]",Compound,CC50 at 72 h [3] [µg/mL]
15.5,> 25.5,> 25.5,–,COc1nc(NC(C)=O)ccc1/C=C/C(=O)N1CC2C=C(c3ccccc3)CC2C1 (stereo not shown) [compound 23],> 10.1
2.95,> 33.8,> 33.8,–,O=C(Nc1ncc(/C=C/C(=O)N2CC3C=C(c4ccccc4)CC3C2)cc1CN1CCOCC1)c1cccnc1 (stereo not shown) [compound 34],12.6
14.8,> 31.3,> 31.3,–,COc1ccc(C(=O)Nc2ccc(/C=C/C(=O)N3CC4C=C(c5ccccc5)CC4C3)cn2)c(OC)n1 (stereo not shown) [compound 28],2.99
1.34,0.92,0.87,–,CC(=O)N1CCN2Cc3cc(/C=C/C(=O)N4CC5C=C(c6ccncc6)CC5C4)cnc3NC(=O)C2C1 (stereo not shown) [compound 84],> 12.5
3.46,> 27.5,> 27.5,–,O=C(Nc1ccc(/C=C/C(=O)N2CC3C=C(c4ccccc4)CC3C2)cn1)c1ccccn1 (stereo not shown) [compound 24],7.76
–,< 0.2,< 0.2,–,CC1(C)Oc2cc(/C=C/C(=O)N3CC4C=C(c5nccs5)CC4C3)cnc2NC1=O (stereo not shown) [compound 44],–
1.83,3.47,3.81,–,O=C1Nc2ncc(/C=C/C(=O)N3CC4C=C(c5ccccc5)CC4C3)cc2Cn2nccc21 (stereo not shown) [compound 86],–
–,–,–,<0.20,CC1(C)Oc2cc(/C=C/C(=O)N3CC4C=C(c5ccccc5)CC4C3)cnc2NC1=O (stereo not shown) [compound 43],–
7.41,> 26.4,> 26.4,–,CN1CC(=O)Nc2ncc(/C=C/C(=O)N3C[C@@H]4CN(c5cccnc5)C[C@@H]4C3)cc2C1 [compound 62],> 10.5
–,< 0.2,< 0.2,–,Cn1nccc1C1=CC2CN(C(=O)/C=C/c3cnc4c(c3)OC(C)(C)C(=O)N4)CC2C1 (stereo not shown) [compound 45],–
1.1,< 0.21,< 0.21,–,O=C1Nc2ncc(/C=C/C(=O)N3CC4C=C(c5ccccc5)CC4C3)cc2Cn2cncc21 (stereo not shown) [compound 71],6.78
8.31,> 21.8,> 21.8,–,Cc1cc(N)ncc1/C=C/C(=O)N1CC2C=C(c3ccccc3)CC2C1 (stereo not shown) [compound 20],4.55
0.959,< 0.19,< 0.19,–,O=C1CNCc2cc(/C=C/C(=O)N3CC4C=C(c5ccsc5)CC4C3)cnc2N1 (stereo not shown) [compound 40],> 10.2
20.9,> 29.1,> 29.1,–,N#Cc1cc(NC(=O)c2cccnc2)ncc1/C=C/C(=O)N1CC2C=C(c3ccccc3)CC2C1 (stereo not shown) [compound 27],> 11.6
6.77,> 21.8,> 21.8,–,Cc1nc(N)ccc1/C=C/C(=O)N1CC2C=C(c3ccccc3)CC2C1 (stereo not shown) [compound 21],3.11
2.4,< 0.22,0.42,–,COc1cncc(C(=O)Nc2ccc(/C=C/C(=O)N3CC4C=C(c5ccccc5)CC4C3)cn2)c1 (stereo not shown) [Cpd. No. 7],> 11.7
–,< 0.2,< 0.2,–,CC1(C)Oc2cc(/C=C/C(=O)N3CC4C=C(c5ccccc5)CC4C3)cnc2NC1=O (stereo not shown) [compound 42],–
~33.9,> 22.5,> 22.5,–,N#Cc1cc(N)ncc1/C=C/C(=O)N1CC2C=C(c3ccccc3)CC2C1 (stereo not shown) [compound 22],> 8.95
10.2,> 28.4,> 28.4,–,Cc1cc(NC(=O)c2cccnc2)ncc1/C=C/C(=O)N1CC2C=C(c3ccccc3)CC2C1 (stereo not shown) [compound 26],> 11.3

Compound,IC50 [1] [µM],IC90 [2] [µg/mL],IC90 (S. aureus) [µg/mL],"STA (361.159) IC90 ([2]; Staphylococcus aureus ATCC 29213, broth microdilution) [µg/mL]",CC50 at 72 h [3] [µg/mL]
"O=C1CNCc2cc(/C=C/C(=O)N3C[C@H]4CC(c5ccccc5)=C[C@H]4C3)cnc2N1 (single isomer, unassigned) [compound 46]",0.924,0.23,0.27,–,> 4.05
